According to patent publication US20160038519A1, “ADMINISTRATION OF KARENITECIN FOR THE TREATMENT OF ADVANCED OVARIAN CANCER, INCLUDING CHEMOTHERAPY-RESISTANT AND/OR THE MUCINOUS ADENOCARCINOMA SUB-TYPES” (BioNumerik Pharmaceuticals, Inc., priority 2014, published 2016):
Values after ≈ are worked out from the molar mass of the structure shown. Read-outs that look alike come from different tables or passages of the source.

What was measured:
COV644 Cell Line = experiment: SRB cytotoxicity assay, COV644; assay type: cell-based, human
Protocol: (§1) In vitro studies were conducted in human mucinous ovarian cancer cell lines including JHOM2B, OMC3, and COV644. In one series of experiments, the dose response curves for BNP1350 (also known as Karenitecin), SN-38 (Irinotecan), and Topotecan were obtained and IC50 values were determined. In a second series of experiments, the effect of BNP7787 (2,2′-dithio-bis-ethane sulfonate; Tavocept) on BNP1350-induced cytotoxicity at selected BNP1350 concentrations was examined.
(§2) The JHOM2B and OMC3 cell lines were purchased from Riken Cell Bank (Japan). The COV644 cell line was purchased from SigmaAldrich. Cells were maintained as monolayered cultures in T-75 flasks and then seeded to microtiter plate wells for experiments. Population doubling-times for these three cell lines were long (i.e., exceeding 40 hours, and for some of the cell lines approaching 96 hours); therefore, the Applicants conducted initial pilot experiments and determined optimal seeding density to obtain A570 values in untreated controls that would fall within the linear range of the SRB assay after seven (7) total days of cell growth. JHOM2B cells were cultured in DMEM:F12 (1:1)+0.1 mM non-essential amino acids (NEAA)+10% FBS and were seeded at 6,000 cells per well. OMC3 cells were cultured in HamF12+10% FBS and were seeded at 8,000 cells per well. COV644 cells were cultured in DMEM+2 mM glutamine+10% FBS and were seeded at 6,000 cells per well.
(§3) The cells were manipulated in a Microzone laminar flow hood traditionally used for maintaining aseptic environments around automated instrumentation such as microplate robots, and the like. Cells were grown and maintained at 37° C. in a humidified atmosphere containing 5% CO2 in a water jacketed cell culture incubator (Forma Scientific). Cells were counted using a ViCell counter (Beckman-Coulter). An automated plate washer/stacker (ELx405/BioStak from BioTek Instruments) and a microplate reader (SpectraMax Plus from Molecular Devices) were used for conducting the SRB assay and determining A570 values for wells in the plates and the percentage of control values. Prior to SRB assays, cell viability was monitored by evaluation of microtiter plate wells. Dead cells detach and float while living cells remain attached to the bottom of the cell well.
(§4) SN-38 (Irinotecan; Sigma H0165, lot MKBQ4981) and Topotecan (Sigma T2705, lot 052M4728V) were purchased from SigmaAldrich. BNP1350 (lot KN-C192-135) and BNP7787 (lot 205001) were synthesized at BioNumerik Pharmaceuticals, Inc. (San Antonio, Tex.). BNP1350, SN38, and Topotecan were prepared as 2.5, 2.5, and 25 mM stocks in DMSO (ATCC, cell culture grade).
(§5) The sulforhodamine B (SRB) cytotoxicity assay was used to assess cell survival. Briefly, after the medium was decanted from individual plate wells, trichloroacetic acid (100 μL of 10.0 percent solution) was added to each well, and the plates were incubated at 4° C. for 1 hour. The plates were washed five times with water using an automated microplate washer (Model ELx405, Bio-Tek Instruments), SRB solution (100 μL of 0.4% SRB dissolved in 1.0 percent acetic acid) was added, and plates remained at room temperature for 15 minutes. The plates were then washed five times using acetic acid (1.0 percent), air dried, and bound dye was solubilized in Tris base (150 μL, 10 mM). Plates were agitated (gently) for 5 minutes and the absorbance values of the SRB dye-protein adduct at 570 nanometers (A570) were determined using an automated microtiter plate reader (SpectraMax Plus, Molecular Devices). IC50 values were extrapolated from dose response curves of the data using OriginLab Software.
(§6) The 1050 values exceeded the solubility in medium for each compound—the limit of solubility in cell culture medium for the compounds were as follows: 2 micromolar for BNP1350 and SN38, and 20 micromolar for Topotecan. Cells were treated for periods of 2.5 hours or 6 hours and, in each case, the […] values were not reached. Longer treatments were not performed.

[1] = Limit of solubility in cell culture medium; assay type: physicochemical; settings: aqueous buffer
Protocol: as §6

[2] = tested on: stage III/IV advanced epithelial ovarian cancer resistant or refractory to platinum- and taxane-based regimens
Protocol: Such Phase III clinical trial is sometimes referred to herein as the “Karenitecin Phase III Trial”.
The Primary Endpoint of the disclosed Karenitecin Phase III Trial was Progression Free Survival (“PFS”); which was defined as the time period from the date of randomization to the date of first radiographically-documented Progressive Disease (“PD”) or date of death due to any cause, taking the event date that occurs first. The date of PD was determined by radiographical objective disease (RECIST) measurement. The Secondary Endpoints of the disclosed Karenitecin Phase III Trial included: (i) Overall Survival (hereinafter “OS”), defined as the time from the date of randomization to the date of death due to any cause; (ii) Incidence of anemia, defined as the proportion of subjects who experience ≧grade 3 anemia based on National Cancer Institute Common Terminology Criteria for Adverse Events (NCI-CTCAE) criteria at any time post-baseline after receiving study treatment; (iii) Incidence of neutropenia (including febrile neutropenia), defined as the proportion of subjects who experience ≧grade 3 neutropenia based on NCI-CTCAE criteria at any time post-baseline after receiving study treatment; and (iv) Incidence of thrombocytopenia, defined as the proportion of subjects who experience ≧grade 3 thrombocytopenia based on NCI-CTCAE criteria at any time post-baseline after receiving study treatment.
Approximately 80 study centers participated in this clinical study. The primary endpoint was Progression Free Survival (PFS); defined as the time period from the date of randomization to the date of first radiographically documented progressive disease or disease progression (“PD”) or date of death due to any cause, taking the event date that occurs first.
The primary endpoint was Progression Free Survival (PFS); defined as the time period from the date of randomization to the date of first radiographically documented progressive disease (PD) or date of death due to any cause, taking the event date that occurs first. The date of PD was determined by radiographically objective disease (RECIST) measurement.
• Overall Survival (OS), defined as the time from the date of randomization to the date of death due to any cause. • Incidence of anemia, defined as the proportion of subjects who experience ≧grade 3 anemia based on National Cancer Institute Common Terminology Criteria for Adverse Events (NCI-CTCAE) criteria at any time post-baseline after receiving study treatment. • Incidence of neutropenia (including febrile neutropenia), defined as the proportion of subjects who experience ≧grade 3 neutropenia based on NCI-CTCAE criteria at any time post-baseline after receiving study treatment. • Incidence of thrombocytopenia, defined as the proportion of subjects who experience ≧grade 3 thrombocytopenia based on NCI-CTCAE criteria at any time post-baseline after receiving study treatment.
During this period, subjects received either Karenitecin (1.0 mg/m^2/day administered as a 60-minute intravenous infusion) or Topotecan (1.5 mg/m^2/day administered as a 30-minute intravenous infusion) daily for 5 consecutive days, every 21 days (one treatment cycle=21 days).

MDR-expressing sublines = settings: cited from earlier work; for Resistance of MDR-expressing sublines relative to parental wild-type cells: comparison studies; for Change in sensitivity typically described for classic MDR substrates: same experiments
OMC3 Cell Line = experiment: SRB cytotoxicity assay, OMC3; assay type: cell-based, human; settings: Homo sapiens
Protocol: as §1, §2, §3, §4, §5

JHOM2B Cell Line = experiment: SRB cytotoxicity assay, JHOM2B; assay type: cell-based, human; settings: Homo sapiens
Protocol: as §1, §2, §3, §4, §5

[3] = tested on: resistant subline containing less than 4% of the topoisomerase I activity; settings: subline with less than 4% of topoisomerase I activity; cited from earlier work
[4] = tested on: platinum-refractory epithelial ovarian cancer; settings: cited from earlier work
[5] = Mucinous adenocarcinoma subtype
[6] = 2 hour drug exposure, average of Test 1 and Test 2, read-out: IC50, Average
[7] = 2 hour drug exposure, read-out: IC50, Test 1 (2 replicate plates)
[8] = 2 hour drug exposure, read-out: IC50, Test 2 (3 replicate plates)

CC[C@@]1(O)C(=O)OCc2c1cc1n(c2=O)Cc2cc3c(CN(C)C)c(O)ccc3nc2-1 [Topotecan]
IC50 (COV644 Cell Line; Homo sapiens, 2, 5, and 6 hour drug exposures, did not reach 50% of Control, read-out: IC50, Test 1 (2 replicate plates)): > 20 µM | IC50 (COV644 Cell Line; Homo sapiens, 2, 5, and 6 hour drug exposures, did not reach 50% of Control, read-out: IC50, Test 2 (2 to 3 replicate plates)): > 20 µM | IC50 (COV644 Cell Line; Homo sapiens, 2, 5, and 6 hour drug exposures, read-out: IC50, Average): > 20 µM | IC50 (COV644 Cell Line; Homo sapiens, read-out: IC50 values): > 20 µM | solubility [1]: 20 µM (≈ 8.43 µg/mL) | Median PFS [2, 5]: 9.1 weeks | Overall survival (OS), third quartile [2, 5]: 19.4 months | Median PFS ([2]; overall trial population, IRC-determined): 17.8 weeks | Median PFS ([2]; refractory or resistant and/or mucinous subpopulation): 18.7 weeks | Resistance of MDR-expressing sublines relative to parental wild-type cells (MDR-expressing sublines): nine-fold more resistant | IC50 (OMC3 Cell Line; [6]): 3.94 µM | IC50 (OMC3 Cell Line; [7]): 3.12 ± 0.18 µM | IC50 (OMC3 Cell Line; [8]): 4.76 ± 0.25 µM | IC50 (OMC3 Cell Line; read-out: IC50 values): 3.94 µM | IC50 (JHOM2B Cell Line; [6]): 5.17 µM | IC50 (JHOM2B Cell Line; [7]): 4.75 ± 0.25 µM | IC50 (JHOM2B Cell Line; [8]): 5.59 ± 0.28 µM | IC50 (JHOM2B Cell Line; read-out: IC50 values): 5.17 µM

CC[C@@]1(O)C(=O)OCc2c1cc1n(c2=O)Cc2cc3ccccc3nc2-1 [camptothecin]
Decrease in sensitivity of resistant subline compared with wild-type parental cells [3]: 1000 fold | Resistance of MDR-expressing sublines relative to parental wild-type cells (MDR-expressing sublines): No increase in resistance

N.N.O=C([O-])C1(C(=O)[O-])CCC1.[Pt+2] [carboplatin]
Stable disease ([4]; 6 subjects): 18% | Response rate, subgroup with platinum-free interval of 12 months ([4]; 26 subjects (7/26)): 27% | Overall response rate to platinum reinduction ([4]; 33 subjects, single-agent carboplatin after taxane failure): 21% | Median duration of response ([4]; in vivo): ≥ 7 months

COc1cccc2c1C(=O)c1c(O)c3c(c(O)c1C2=O)C[C@@](O)(C(=O)CO)C[C@@H]3O[C@H]1C[C@H](N)[C@H](O)[C@H](C)O1 [doxorubicin]
Change in sensitivity typically described for classic MDR substrates (MDR-expressing sublines): 200 fold

COc1cc([C@@H]2c3cc4c(cc3[C@@H](O[C@@H]3O[C@@H]5CO[C@@H](C)O[C@H]5[C@H](O)[C@H]3O)[C@H]3COC(=O)[C@H]23)OCO4)cc(OC)c1O [etoposide]
Change in sensitivity typically described for classic MDR substrates (MDR-expressing sublines): 200 fold
